According to the Kinase Knowledgebase extract (Sharma et al. 2016):

Assays:
PIK3CB (Human) [1] = biological target: PIK3CB (Human) (UniProt P42338); assay: Enzyme Assay
PIK3CA (human) [2] = biological target: PIK3CA (human) (UniProt P42336); assay: Enzyme Assay
PIK3CD (Human) [3] = biological target: PIK3CD (Human) (UniProt O00329); assay: Enzyme Assay
PIK3CG (human) = PIK3CG (human) (UniProt P48736); assay: Enzyme Assay
PIK3CD (Human) [4] = biological target: PIK3CD (Human) (UniProt O00329); assay: Cell-Based Assay; details: raji
PIK3CB (Human) [5] = biological target: PIK3CB (Human) (UniProt P42338); assay: Cell-Based Assay; details: 786-o
PIK3CA (human) [6] = biological target: PIK3CA (human) (UniProt P42336); assay: Cell-Based Assay; details: skov-3

Chain of PIK3CD (Human) (O00329 whole entry, looked up): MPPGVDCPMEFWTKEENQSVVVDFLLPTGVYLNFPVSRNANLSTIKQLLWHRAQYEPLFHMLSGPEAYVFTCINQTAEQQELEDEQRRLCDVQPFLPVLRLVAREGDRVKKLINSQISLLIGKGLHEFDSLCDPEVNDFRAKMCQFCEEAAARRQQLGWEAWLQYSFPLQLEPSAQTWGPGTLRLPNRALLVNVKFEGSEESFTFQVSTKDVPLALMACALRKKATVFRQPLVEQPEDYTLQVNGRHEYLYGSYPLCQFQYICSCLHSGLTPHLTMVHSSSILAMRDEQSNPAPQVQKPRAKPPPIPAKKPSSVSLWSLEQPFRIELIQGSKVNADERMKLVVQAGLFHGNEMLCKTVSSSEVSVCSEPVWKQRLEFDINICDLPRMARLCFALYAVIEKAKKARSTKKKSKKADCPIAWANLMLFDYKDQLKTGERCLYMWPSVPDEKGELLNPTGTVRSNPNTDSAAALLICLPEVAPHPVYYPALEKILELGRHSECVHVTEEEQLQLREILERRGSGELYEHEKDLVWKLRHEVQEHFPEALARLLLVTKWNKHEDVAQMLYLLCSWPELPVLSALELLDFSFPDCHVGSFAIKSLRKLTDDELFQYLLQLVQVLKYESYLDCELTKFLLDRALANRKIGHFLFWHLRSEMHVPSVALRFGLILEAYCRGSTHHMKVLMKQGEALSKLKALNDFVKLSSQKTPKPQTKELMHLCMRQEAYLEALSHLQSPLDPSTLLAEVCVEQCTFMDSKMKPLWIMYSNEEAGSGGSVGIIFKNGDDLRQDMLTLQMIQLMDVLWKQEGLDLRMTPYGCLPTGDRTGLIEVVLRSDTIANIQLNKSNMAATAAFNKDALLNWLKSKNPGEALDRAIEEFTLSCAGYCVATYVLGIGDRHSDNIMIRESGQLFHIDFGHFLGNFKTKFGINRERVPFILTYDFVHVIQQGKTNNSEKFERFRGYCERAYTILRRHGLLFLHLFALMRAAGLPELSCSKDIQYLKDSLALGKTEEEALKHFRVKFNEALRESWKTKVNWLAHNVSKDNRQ
Chain of PIK3CA (human) (P42336 whole entry, looked up): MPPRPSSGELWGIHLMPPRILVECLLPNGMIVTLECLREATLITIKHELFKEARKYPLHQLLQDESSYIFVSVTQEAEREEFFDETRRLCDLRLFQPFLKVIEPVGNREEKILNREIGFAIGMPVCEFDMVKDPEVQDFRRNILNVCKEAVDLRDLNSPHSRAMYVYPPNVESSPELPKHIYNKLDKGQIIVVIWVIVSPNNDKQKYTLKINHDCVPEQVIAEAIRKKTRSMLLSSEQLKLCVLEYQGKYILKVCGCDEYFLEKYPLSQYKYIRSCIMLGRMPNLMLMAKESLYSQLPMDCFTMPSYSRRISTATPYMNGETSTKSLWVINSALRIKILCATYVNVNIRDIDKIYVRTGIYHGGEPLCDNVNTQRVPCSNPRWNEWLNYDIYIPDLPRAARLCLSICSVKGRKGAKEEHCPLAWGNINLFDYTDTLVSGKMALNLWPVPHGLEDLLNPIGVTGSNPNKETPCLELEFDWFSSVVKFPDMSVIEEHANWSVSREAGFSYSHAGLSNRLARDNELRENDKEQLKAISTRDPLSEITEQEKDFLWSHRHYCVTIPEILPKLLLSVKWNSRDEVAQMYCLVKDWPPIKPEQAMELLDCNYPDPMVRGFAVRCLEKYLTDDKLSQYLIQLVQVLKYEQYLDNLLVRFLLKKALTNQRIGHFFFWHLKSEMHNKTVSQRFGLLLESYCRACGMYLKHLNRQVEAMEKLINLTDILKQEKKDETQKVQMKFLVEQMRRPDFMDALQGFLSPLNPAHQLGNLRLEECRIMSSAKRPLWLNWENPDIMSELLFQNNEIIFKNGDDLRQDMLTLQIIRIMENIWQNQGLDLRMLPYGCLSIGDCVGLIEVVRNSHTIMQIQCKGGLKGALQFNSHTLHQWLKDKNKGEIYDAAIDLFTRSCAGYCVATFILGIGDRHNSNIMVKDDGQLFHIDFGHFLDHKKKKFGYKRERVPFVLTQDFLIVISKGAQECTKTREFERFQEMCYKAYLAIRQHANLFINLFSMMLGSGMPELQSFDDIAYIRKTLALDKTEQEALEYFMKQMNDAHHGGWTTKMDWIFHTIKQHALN
Chain of PIK3CB (Human) (P42338 whole entry, looked up): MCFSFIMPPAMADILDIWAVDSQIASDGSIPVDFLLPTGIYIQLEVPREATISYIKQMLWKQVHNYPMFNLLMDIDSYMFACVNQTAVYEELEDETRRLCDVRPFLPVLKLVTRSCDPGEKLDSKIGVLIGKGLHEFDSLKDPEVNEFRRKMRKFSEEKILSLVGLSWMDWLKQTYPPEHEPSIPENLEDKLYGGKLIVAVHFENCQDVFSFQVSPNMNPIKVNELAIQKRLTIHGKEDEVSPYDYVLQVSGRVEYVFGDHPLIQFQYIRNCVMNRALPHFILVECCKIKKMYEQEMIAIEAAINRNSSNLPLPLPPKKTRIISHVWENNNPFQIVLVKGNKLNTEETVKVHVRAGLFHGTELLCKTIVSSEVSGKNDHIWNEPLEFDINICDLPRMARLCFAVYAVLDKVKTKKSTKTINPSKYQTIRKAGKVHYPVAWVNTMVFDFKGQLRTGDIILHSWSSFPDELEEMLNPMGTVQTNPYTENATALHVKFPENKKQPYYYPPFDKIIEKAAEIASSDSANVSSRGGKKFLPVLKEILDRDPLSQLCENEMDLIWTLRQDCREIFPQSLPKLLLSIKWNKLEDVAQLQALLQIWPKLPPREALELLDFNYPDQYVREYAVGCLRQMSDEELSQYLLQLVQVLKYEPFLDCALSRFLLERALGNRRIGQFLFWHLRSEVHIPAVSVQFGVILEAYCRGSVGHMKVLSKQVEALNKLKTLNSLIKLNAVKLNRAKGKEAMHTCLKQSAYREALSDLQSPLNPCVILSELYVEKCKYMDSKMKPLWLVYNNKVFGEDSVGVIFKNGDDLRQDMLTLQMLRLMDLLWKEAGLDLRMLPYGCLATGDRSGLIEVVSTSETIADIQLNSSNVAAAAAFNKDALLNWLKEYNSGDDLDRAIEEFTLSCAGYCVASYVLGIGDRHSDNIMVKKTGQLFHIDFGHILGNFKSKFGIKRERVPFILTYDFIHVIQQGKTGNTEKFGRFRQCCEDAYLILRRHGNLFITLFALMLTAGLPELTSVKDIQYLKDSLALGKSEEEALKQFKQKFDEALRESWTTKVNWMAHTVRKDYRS
Chain of PIK3CG (human) (P48736 whole entry, looked up): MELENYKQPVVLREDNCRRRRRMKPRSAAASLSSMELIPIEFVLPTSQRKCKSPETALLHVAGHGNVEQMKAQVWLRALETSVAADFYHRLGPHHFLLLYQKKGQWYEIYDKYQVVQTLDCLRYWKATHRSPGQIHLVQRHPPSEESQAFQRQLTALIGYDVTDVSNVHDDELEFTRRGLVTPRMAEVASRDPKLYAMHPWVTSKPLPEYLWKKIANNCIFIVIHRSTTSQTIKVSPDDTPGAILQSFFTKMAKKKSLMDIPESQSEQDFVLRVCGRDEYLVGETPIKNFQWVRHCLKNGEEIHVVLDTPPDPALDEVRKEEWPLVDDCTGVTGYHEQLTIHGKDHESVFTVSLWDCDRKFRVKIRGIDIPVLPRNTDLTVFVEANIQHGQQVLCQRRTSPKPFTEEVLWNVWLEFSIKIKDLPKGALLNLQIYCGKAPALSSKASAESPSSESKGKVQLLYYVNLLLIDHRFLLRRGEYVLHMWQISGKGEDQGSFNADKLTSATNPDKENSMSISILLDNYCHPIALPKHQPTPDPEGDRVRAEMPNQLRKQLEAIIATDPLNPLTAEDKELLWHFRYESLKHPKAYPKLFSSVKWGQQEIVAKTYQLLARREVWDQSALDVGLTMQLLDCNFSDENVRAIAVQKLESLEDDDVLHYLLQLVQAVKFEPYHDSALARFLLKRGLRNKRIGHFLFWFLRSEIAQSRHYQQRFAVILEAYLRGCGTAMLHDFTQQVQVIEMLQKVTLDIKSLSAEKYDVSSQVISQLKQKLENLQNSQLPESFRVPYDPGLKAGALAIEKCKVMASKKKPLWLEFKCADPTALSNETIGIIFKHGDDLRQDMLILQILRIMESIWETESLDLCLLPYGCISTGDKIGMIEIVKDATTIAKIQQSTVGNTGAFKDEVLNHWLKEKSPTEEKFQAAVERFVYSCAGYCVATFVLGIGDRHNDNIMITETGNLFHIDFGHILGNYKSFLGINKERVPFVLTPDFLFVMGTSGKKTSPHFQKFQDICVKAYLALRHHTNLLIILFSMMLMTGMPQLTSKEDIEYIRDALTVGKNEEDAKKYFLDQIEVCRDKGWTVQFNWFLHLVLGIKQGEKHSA

Structure (SMILES) | IC50 (PIK3CB (Human) [1]) | IC50 (PIK3CA (human) [2]) | IC50 (PIK3CD (Human) [3]) | IC50 (PIK3CG (human)) | IC50 (PIK3CD (Human) [4]) | IC50 (PIK3CB (Human) [5]) | IC50 (PIK3CA (human) [6])
C[C@H](Nc1ncnc2scnc12)c1cc2cccc(-c3cn(C)cn3)c2c(=O)n1-c1ccccc1 | > 10000 nM | > 10000 nM | 100 to 1000 nM | > 10000 nM |  |  | 
C[C@H](Nc1ncnc2scnc12)c1cc2cccc(C(=O)N(C)C)c2c(=O)n1-c1ccccc1 | > 10000 nM | > 10000 nM | 100 to 1000 nM | > 10000 nM |  |  | 
Cc1nc2c(N[C@@H](C)c3cc4cccc(Cl)c4c(=O)n3-c3cccc(F)c3)ncnc2s1 | > 10000 nM | > 10000 nM |  | > 10000 nM |  |  | 
Cc1nc2c(N[C@@H](C)c3cc4cccc(Cl)c4c(=O)n3-c3ccccc3)ncnc2s1 | > 10000 nM | > 10000 nM | > 10000 nM | > 10000 nM |  |  | 
C[C@H](Nc1ncnc2scnc12)c1cc2cccc(Cl)c2c(=O)n1-c1cccc(F)c1 | < 100 nM | 100 to 1000 nM | < 100 nM | < 100 nM |  |  | 
C[C@H](Nc1nc(N)nc2scnc12)c1cc2cccc(-c3cnn(C)c3)c2c(=O)n1-c1ccccc1 | 100 to 1000 nM | 100 to 1000 nM | < 100 nM | < 100 nM |  |  | 
C[C@H](Nc1ncnc2scnc12)c1cc2cccc(Cl)c2c(=O)n1C1CC1 | < 100 nM | 100 to 1000 nM | < 100 nM | < 100 nM |  |  | 
C[C@H](Nc1ncnc2scnc12)c1cc2cccc(-c3cnn(C)c3)c2c(=O)n1-c1ccccc1 |  | 100 to 1000 nM | < 100 nM | < 100 nM | < 100 nM |  | 100 to 1000 nM
CNC(=O)c1cccc2cc([C@H](C)Nc3ncnc4scnc34)n(-c3ccccc3)c(=O)c12 | > 10000 nM | > 10000 nM | 100 to 1000 nM | > 10000 nM |  |  | 
CC(C)n1c([C@H](C)Nc2ncnc3scnc23)cc2cccc(-c3ccnnc3)c2c1=O | > 10000 nM | > 10000 nM | 100 to 1000 nM | > 10000 nM | < 100 nM |  | 
COc1cncc(-c2cccc3cc([C@H](C)Nc4ncnc5scnc45)n(C4CC4)c(=O)c23)c1 | 100 to 1000 nM | 100 to 1000 nM | < 100 nM | 100 to 1000 nM |  |  | 
C[C@H](Nc1ncnc2scc(-c3ccccc3)c12)c1cc2cccc(Cl)c2c(=O)n1-c1ccccc1 | > 10000 nM | > 10000 nM | 100 to 1000 nM |  |  |  | 
C[C@H](Nc1ncnc2scnc12)c1cc2cccc(-c3cncc(N)c3)c2c(=O)n1-c1ccccc1 | > 10000 nM |  | < 100 nM | 100 to 1000 nM | < 100 nM |  | 
C[C@H](Nc1ncnc2scnc12)c1cc2cccc(-c3cnc4ccccc4c3)c2c(=O)n1-c1ccccc1 | 100 to 1000 nM | 100 to 1000 nM | < 100 nM | < 100 nM |  |  | 
Cc1ncc(-c2cccc3cc([C@H](C)Nc4ncnc5scnc45)n(-c4ccon4)c(=O)c23)cn1 | > 10000 nM | > 10000 nM | 100 to 1000 nM | > 10000 nM | < 100 nM |  | 
C[C@H](Nc1ncnc2scnc12)c1cc2cccc(-c3cnc4[nH]ccc4c3)c2c(=O)n1-c1ccccc1 | 100 to 1000 nM | 100 to 1000 nM | < 100 nM | < 100 nM |  |  | 
C[C@H](Nc1ncnc2scnc12)c1cc2cccc(-c3cnn(C)c3)c2c(=O)n1C1CC1 | 100 to 1000 nM | 100 to 1000 nM | < 100 nM | < 100 nM |  |  | 
COc1cncc(-c2cccc3cc([C@H](C)Nc4ncnc5scnc45)n(-c4ccccc4)c(=O)c23)c1 | 100 to 1000 nM | < 100 nM | < 100 nM | < 100 nM |  |  | 

More lines, now with the values ahead:

IC50 (PIK3CB (Human) [1]) | IC50 (PIK3CA (human) [2]) | IC50 (PIK3CD (Human) [3]) | IC50 (PIK3CG (human)) | IC50 (PIK3CD (Human) [4]) | IC50 (PIK3CB (Human) [5]) | IC50 (PIK3CA (human) [6]) | Structure (SMILES)
> 10000 nM | > 10000 nM | < 100 nM | 100 to 1000 nM |  |  |  | C[C@H](Nc1ncnc2scnc12)c1cc2cccc(-c3ccccn3)c2c(=O)n1-c1ccccc1
100 to 1000 nM | 100 to 1000 nM | < 100 nM | < 100 nM |  |  |  | C[C@H](Nc1ccnc2scnc12)c1cc2cccc(Cl)c2c(=O)n1-c1ccccc1
 |  | < 100 nM | < 100 nM | < 100 nM |  |  | COc1ncc(-c2cccc3cc([C@H](C)Nc4ncnc5scnc45)n(-c4ccccc4)c(=O)c23)cn1
100 to 1000 nM | > 10000 nM | < 100 nM | > 10000 nM |  |  |  | C[C@H](Nc1ncnc2scnc12)c1cc2cccc(Cl)c2c(=O)n1CCN1CCCC1
 |  | < 100 nM | 100 to 1000 nM | < 100 nM | 100 to 1000 nM | 100 to 1000 nM | COc1ncc(-c2cccc3cc([C@H](C)Nc4ncnc5scnc45)n(-c4ccon4)c(=O)c23)cn1
 |  | < 100 nM | 100 to 1000 nM | < 100 nM | 100 to 1000 nM | 100 to 1000 nM | CC(C)n1c([C@H](C)Nc2ncnc3scnc23)cc2cccc(-c3ccc(=O)n(C)c3)c2c1=O
< 100 nM | 100 to 1000 nM | < 100 nM | < 100 nM |  |  |  | C[C@H](Nc1ncnc2scnc12)c1cc2cccc(Cl)c2c(=O)n1-c1ccccc1
100 to 1000 nM | > 10000 nM | < 100 nM | 100 to 1000 nM | < 100 nM |  |  | C[C@H](Nc1ncnc2scnc12)c1cc2cccc(Cl)c2c(=O)n1-c1ccon1
> 10000 nM | > 10000 nM | < 100 nM | 100 to 1000 nM |  |  |  | C[C@H](Nc1ncnc2scnc12)c1cc2cccc(-c3cnc4nccnc4c3)c2c(=O)n1-c1ccccc1
100 to 1000 nM | 100 to 1000 nM | < 100 nM | < 100 nM |  |  |  | C[C@H](Nc1ncnc2scnc12)c1cc2cccc(-c3ccc(N)nc3)c2c(=O)n1C1CC1
> 10000 nM | > 10000 nM | < 100 nM | 100 to 1000 nM |  |  |  | C[C@H](Nc1ncnc2scnc12)c1cc2cccc(-c3ccc(C(F)(F)F)nc3)c2c(=O)n1-c1ccccc1
